Laboratory results: patent US7192948B2, “Bicyclic heterocycles as HIV integrase inhibitors” (priority 2004, dated 2007)
pIC50: −log10 of the molar value.

Legend:
[1] = molecular target: T1, HIV-integrase (Human immunodeficiency virus type 1 group M subtype B, UniProt P12497); experiment: HIV-Integrase Inhibition Activity (SPA bead strand transfer assay); format: biochemical; settings: recombinant integrase, in vitro
T1 construct: Recombinant integrase (0.26 ng) was incubated with the beads
Protocol: HIV-Integrase Inhibition Activity. To evaluate in-vitro activity against HIV-integrase, 5 pmole of biotin labeled substrate DNA was bound to 100 μg of Streptavidin coated PVT SPA beads (Amersham Pharmacia Biotech). Recombinant integrase (0.26 ng) was incubated with the beads for 90 min at 37° C. Unbound enzyme was removed by washing the complex followed by addition of inhibitors and 0.1 fmol of P33 labeled target DNA. The reaction was stopped by adding EDTA to a final concentration of […]. Samples were counted in TopCountNXT (Packard) and the CPM was used as a measure of integration. The reaction condition was as described in A. Engelman and R. Craigie, J. Virol. 69, 5908–5911 (1995). The sequences of substrate and target DNA were described in Nucleic Acid Research 22, 1121–1122 (1994).

In the case of O=C1Cn2c(nc(C(=O)NCc3ccc(Cl)c(Cl)c3)c(O)c2=O)N1 [Example 2, 6-Hydroxy-2,5-dioxo-1,2,3,5-tetrahydro-imidazo[1,2-a]pyrimidine-7-carboxylic acid 3,4-dichloro-benzylamide], the melting point was 280 °C (dec.) and the pIC50 [1] was 7.82 to 8.40.

In the case of CN1C(=O)CCn2c1nc(C(=O)NCc1ccc(F)cc1)c(O)c2=O [Example 18, N-(4-Fluorobenzyl)-3-hydroxy-9-methyl-4,8-dioxo-6,7,8,9-tetrahydro-4H-pyrimido[1,2-a]pyrimidine-2-carboxamide], the melting point was 176 to 178 °C and the pIC50 [1] was 4.31 to 7.80.

Compound CN1C(=O)CCn2c1nc(C(=O)NCc1ccc(Cl)c(Cl)c1)c(O)c2=O [Example 19, N-(3,4-Dichlorobenzyl)-3-hydroxy-9-methyl-4,8-dioxo-6,7,8,9-tetrahydro-4H-pyrimido[1,2-a]pyrimidine-2-carboxamide] has a melting point of 198 to 201 °C and a pIC50 [1] of 7.82 to 8.40.

Cc1ccc(CNC(=O)c2nc3n(c(=O)c2O)CCC(=O)N3C)cc1C [Example 22, N-(3,4-Dimethylbenzyl)-3-hydroxy-9-methyl-4,8-dioxo-6,7,8,9-tetrahydro-4H-pyrimido[1,2-a]pyrimidine-2-carboxamide] gave a melting point of 181 °C and a pIC50 [1] of 4.31 to 7.80.

With Cc1cc(CNC(=O)c2nc3n(c(=O)c2O)CC(=O)N3)ccc1F [Example 3, 6-Hydroxy-2,5-dioxo-1,2,3,5-tetrahydro-imidazo[1,2-a]pyrimidine-7-carboxylic acid 4-fluoro-3-methyl-benzylamide] the melting point was 287 °C (dec.) and the pIC50 [1] was 4.31 to 7.80.

In the case of O=C1CCn2c(nc(C(=O)NCc3ccc(Cl)c(Cl)c3)c(O)c2=O)N1 [Example 7, 3-Hydroxy-4,8-dioxo-6,7,8,9-tetrahydro-4H-pyrimido[1,2-a]pyrimidine-2-carboxylic acid 3,4-dichloro-benzylamide], the melting point was > 300 °C (dec.) and the pIC50 [1] was 7.82 to 8.40.

For O=C1Cn2c(nc(C(=O)NCc3ccc(F)c(Cl)c3)c(O)c2=O)N1 [Example 4, 6-Hydroxy-2,5-dioxo-1,2,3,5-tetrahydro-imidazo[1,2-a]pyrimidine-7-carboxylic acid 3-chloro-4-fluoro-benzylamide], the melting point was 295 °C (dec.) and the pIC50 [1] was 4.31 to 7.80.

CN1C(=O)CCn2c1nc(C(=O)NCc1ccc(F)c(Cl)c1)c(O)c2=O [Example 21, N-(3-Chloro-4-fluorobenzyl)-3-hydroxy-9-methyl-4,8-dioxo-6,7,8,9-tetrahydro-4H-pyrimido[1,2-a]pyrimidine-2-carboxamide] showed a melting point of 201 °C and a pIC50 [1] of 7.82 to 8.40.

With O=C1CCn2c(nc(C(=O)NCc3ccc(F)cc3)c(O)c2=O)N1 [Example 6, 3-Hydroxy-4,8-dioxo-6,7,8,9-tetrahydro-4H-pyrimido[1,2-a]pyrimidine-2-carboxylic acid 4-fluoro-benzylamide] the melting point was > 300 °C (dec.) and the pIC50 [1] was 4.31 to 7.80.

With Cc1cc(CNC(=O)c2nc3n(c(=O)c2O)CCC(=O)N3C)ccc1F [Example 20, N-(4-Fluoro-3-methylbenzyl)-3-hydroxy-9-methyl-4,8-dioxo-6,7,8,9-tetrahydro-4H-pyrimido[1,2-a]pyrimidine-2-carboxamide] the melting point was 216 °C and the pIC50 [1] was 7.82 to 8.40.

With Cc1ccc(CNC(=O)c2nc3n(c(=O)c2O)CC(=O)N3)cc1C [Example 5, 6-Hydroxy-2,5-dioxo-1,2,3,5-tetrahydro-imidazo[1,2-a]pyrimidine-7-carboxylic acid 3,4-dimethyl-benzylamide] the melting point was 287 °C (dec.) and the pIC50 [1] was 4.31 to 7.80.

With Cc1cc(CNC(=O)c2nc3n(c(=O)c2O)CCC(=O)N3)ccc1F [Example 8, 3-Hydroxy-4,8-dioxo-6,7,8,9-tetrahydro-4H-pyrimido[1,2-a]pyrimidine-2-carboxylic acid 4-fluoro-3-methyl-benzylamide] the melting point was > 300 °C and the pIC50 [1] was 7.82 to 8.40.

Work on CNC(=O)c1cc(F)ccc1CNC(=O)c1nc2n(c(=O)c1O)CCC(=O)N2C [Example 23, N-(4-Fluoro-2-(methylcarbamoyl)benzyl)-3-hydroxy-9-methyl-4,8-dioxo-6,7,8,9-tetrahydro-4H-pyrimido[1,2-a]pyrimidine-2-carboxamide] yielded a pIC50 [1] of 7.82 to 8.40.
